From patent US20230113944A1, “COMPOSITIONS AND METHODS FOR THE TREATMENT OF NEURODEGENERATIVE DISEASES” (priority 2020, published 2023)
Values joined by “and” are separate entries in the source; they are usually repeats but may differ in a detail not shown here. Identical values can stand only once. “Also recorded” adds a separate entry of the source. Like-named read-outs stand apart in the source and are kept apart here.

Tests used:
[1] = test system: HEK293T Tau RD P301S FRET biosensor (tau biosensor) cells; test: EV-mediated tau seed transfer (EMT) assay; assay type: cell-based; conditions: 20 μM; for levels of exosomal markers CD63, CD81, and syntenin-1 in donor EVs: vs DMSO control
[2] = test system: Tau P301S (PS19 line) tauopathy mouse model; test: Rapid in vivo assay: IL1β-induced brain EV release; set-up: species or system mice; conditions: for IL1β-induced brain EV / exosomal release (small EV concentration, TRPS): mouse, in vivo, 20 mg/kg
[3] = Brain pharmacokinetic analysis after SQ dosing; conditions: for brain penetration (compound levels in brain tissue, LC-MS/MS): mice; for brain penetration (compound levels in brain tissue, LC-MS/MS) / time of peak brain levels after SQ dosing: 20 mg/kg SQ; for concentration at 1 h: mouse, in vivo, 20 mg/kg; for time of peak brain levels after SQ dosing: wild type mice
Protocol: Pharmacokinetic (PK) analysis on the leads 8 and 11 to determine brain permeability using wild type mice was performed. The compounds were subcutaneously (SQ) injected at a dose of 20 mg per kg of body weight (mpk). Brain and plasma samples were collected 1, 2, and 4 hours after dosing.

[4] = test system: HEK293T Tau RD P301S FRET biosensor (tau biosensor) cells; test: Donor plus Recipient (D+R) tau propagation assay; assay type: cell-based; conditions: 20 μM; for tau seed transfer from donor to recipient cells, D+R assay: 48 hrs
Protocol: HEK293T Tau RD P301S FRET biosensor (tau biosensor) cells were grown in Dulbecco's Modified Eagle's medium (DMEM) with high glucose, 10% FBS, and 1% Penicillin-streptomycin at 37° C./5% CO2. The lead inhibitors were tested in functional tau propagation “D+R” (Donors plus Recipients) and EMT (EV-mediated transfer) assays using the tau biosensors. Briefly, tau aggregation in donor cells (D) was induced by transfection of tau biosensor cells with human AD brain derived synaptosomal extracts (35 μg of synaptosomal fraction for 5 million cells in one 10 cm dish); control cells were treated with corresponding amount of transfection reagent lipofectamine 2000. After 24 hr incubation, the cells were trypsinized and plated together with DID-labeled recipient cells (R) in a 1:1 ratio in 96-well plates (15,000 of each cell type per well) for D+R assay or 1.5 million of donor cells per well in 6-well plates for EMT assay. Tested compounds or a corresponding amount of DMSO (0.2%) was added to the cell culture medium, DMEM, which contained 10% of exosome-depleted FBS (ThermoFisher, A2720803). Four technical replicates were used for each experimental condition. The inhibitors were tested at 20 μM concentration. […] Tau seed transfer from donor to recipient cells results in FRET signal generation in the DID-positive recipient cells, which was measured by flow cytometry. Integrated FRET density was calculated in the top 30% of DID-positive cell based on DID signal intensity.
An Attune NxT Flow Cytometer (Invitrogen) equipped with an autosampler and FRET-compatible laser lines and filter sets was used for FRET signal detection. The FRET (CFP/YFP) signal was excited by a 405 nm laser for CFP excitation and detected in the YFP image detection channel. Flow cytometry data was analyzed using FCS Express version 5 software (DeNovo Software California, USA). Integrated FRET density was calculated as a product of percentage FRET positive cells and median of fluorescent intensity of the FRET positive cells as previously established.

Human AChE = molecular target: T1, Human AChE (Homo sapiens, UniProt P22303); test: biochemical
T1 construct: purchased Sigma
T1 sequence (P22303 32-614): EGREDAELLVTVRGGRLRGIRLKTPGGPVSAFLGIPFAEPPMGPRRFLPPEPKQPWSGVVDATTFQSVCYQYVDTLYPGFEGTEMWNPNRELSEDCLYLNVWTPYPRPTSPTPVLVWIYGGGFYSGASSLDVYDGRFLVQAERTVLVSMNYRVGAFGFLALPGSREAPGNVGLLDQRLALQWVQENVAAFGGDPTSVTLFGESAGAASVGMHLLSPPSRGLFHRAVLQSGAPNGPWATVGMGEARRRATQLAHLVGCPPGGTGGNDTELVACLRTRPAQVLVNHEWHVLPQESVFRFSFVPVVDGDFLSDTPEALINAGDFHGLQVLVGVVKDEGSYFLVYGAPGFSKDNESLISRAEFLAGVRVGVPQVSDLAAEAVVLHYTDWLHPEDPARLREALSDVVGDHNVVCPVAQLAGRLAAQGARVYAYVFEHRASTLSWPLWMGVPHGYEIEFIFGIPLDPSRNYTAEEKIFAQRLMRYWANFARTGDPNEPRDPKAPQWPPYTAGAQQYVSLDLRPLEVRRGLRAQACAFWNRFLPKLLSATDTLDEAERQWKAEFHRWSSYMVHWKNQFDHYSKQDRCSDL
Protocol: This acetylcholinesterase (AChE) assay is based on an Amplex Red assay kit (Thermo Fisher A12217). Human AChE (Sigma) was used. Briefly, 5 μL of compounds at the desired concentration were loaded into wells of a 384-well plate. Then, 5 μl of human AChE (30 mU/mL) was loaded into each well, followed by the addition of 10 μL of the working solution which contains 400 μM Amplex Red reagent, 2 U/mL HRP, 0.2 U/mL choline oxidase, and 100 μM acetylcholine. The reaction was monitored for 60 minutes and read at 530/590 nm. AChE IC50 was determined by plotting AChE activity as a percentage of DMSO control using GraphPad Prism software.

[5] = test system: HEK293T Tau RD P301S FRET biosensor (tau biosensor) cells; test: EV-mediated tau seed transfer (EMT) assay; assay type: cell-based; conditions: 20 μM; for tau seed transfer from donor to recipient cells, EMT assay: donor cells 48 hrs
Protocol: HEK293T Tau RD P301S FRET biosensor (tau biosensor) cells were grown in Dulbecco's Modified Eagle's medium (DMEM) with high glucose, 10% FBS, and 1% Penicillin-streptomycin at 37° C./5% CO2. The lead inhibitors were tested in functional tau propagation “D+R” (Donors plus Recipients) and EMT (EV-mediated transfer) assays using the tau biosensors. Briefly, tau aggregation in donor cells (D) was induced by transfection of tau biosensor cells with human AD brain derived synaptosomal extracts (35 μg of synaptosomal fraction for 5 million cells in one 10 cm dish); control cells were treated with corresponding amount of transfection reagent lipofectamine 2000. After 24 hr incubation, the cells were trypsinized and plated together with DID-labeled recipient cells (R) in a 1:1 ratio in 96-well plates (15,000 of each cell type per well) for D+R assay or 1.5 million of donor cells per well in 6-well plates for EMT assay. Tested compounds or a corresponding amount of DMSO (0.2%) was added to the cell culture medium, DMEM, which contained 10% of exosome-depleted FBS (ThermoFisher, A2720803). Four technical replicates were used for each experimental condition. The inhibitors were tested at 20 μM concentration. In 48 hours 50 μL of culture medium per well were collected for cell viability test (Cytotox 96 non-radioactive cytotoxicity assay, Promega Corp., Madison, Wis.). The cells in D+R assay were harvested at the 48 hr time point and fixed with 2% paraformaldehyde for flow cytometry analysis according to published protocol. Tau seed transfer from donor to recipient cells results in FRET signal generation in the DID-positive recipient cells, which was measured by flow cytometry. Integrated FRET density was calculated in the top 30% of DID-positive cell based on DID signal intensity.
For the EMT assay, cell culture medium from donor cells growing for 48 hours with the compounds at concentrations of 20 μM or a corresponding amount of DMSO (0.2%), was collected and EVs were purified using the ExoQuick-TC kit (SBI biosciences) according to the manufacturer's instructions. Naïve recipient cells were plated in 96 well plates at a density of 20,000 cells per well in exosome-free medium and transfected with donor cell-derived exosomes at 12 hrs. The recipient cells were harvested 60 hours after transfection and FRET signals were analyzed using flow cytometry.
An Attune NxT Flow Cytometer (Invitrogen) equipped with an autosampler and FRET-compatible laser lines and filter sets was used for FRET signal detection. […] Flow cytometry data was analyzed using FCS Express version 5 software (DeNovo Software California, USA). Integrated FRET density was calculated as a product of percentage FRET positive cells and median of fluorescent intensity of the FRET positive cells as previously established.

[6] = Parallel artificial membrane permeability (IAM column) prediction of CNS permeability; assay type: in vitro ADME; conditions: PAMPA, 2 mM
Protocol: To predict the potential for brain permeability, a Regis Technologies analytical column connected to an Agilent HPLC system (Infinity 1260 quaternary pump and multiple wavelength detector; 1200 autosampler) was used. An IAM.PC.DD column was (4.6 mm i.d.×10 cm, particle size 5 μm; pore size 300 Å) conditioned with 20 column volumes of mobile phase or until a stable line was achieved. A mobile phase with a consistent flow rate of 1 mL/min was used comprising 100 mM Na2PO4 (solvent A) and acetonitrile (solvent B); compounds were eluted using a gradient (min/% B: 0/30, 10/60, 11/30, 15/30). Detector settings were 220, 250 and 280 nm and acquisition time was 15 min. The autosampler injected 10 μL of compound at 2 mM final, diluted from 10 mM in DMSO in 70:30 (water:acetonitrile). After elution, compound retention and void volume times were obtained from the chromatogram. The IAM capacity factor: (KIAM) was calculated using the equation: […]
where tr is the retention time of a compound and t0 is the void volume time of the column. To predict CNS permeability, we used the correlation described by the formula below.

[7] = molecular target: human serum albumin (HSA) (Homo sapiens, UniProt P02768); test: Binding to human serum albumin (HSA); conditions: for fraction unbound: human, human serum albumin
human serum albumin (HSA), sequence (P02768 25-609): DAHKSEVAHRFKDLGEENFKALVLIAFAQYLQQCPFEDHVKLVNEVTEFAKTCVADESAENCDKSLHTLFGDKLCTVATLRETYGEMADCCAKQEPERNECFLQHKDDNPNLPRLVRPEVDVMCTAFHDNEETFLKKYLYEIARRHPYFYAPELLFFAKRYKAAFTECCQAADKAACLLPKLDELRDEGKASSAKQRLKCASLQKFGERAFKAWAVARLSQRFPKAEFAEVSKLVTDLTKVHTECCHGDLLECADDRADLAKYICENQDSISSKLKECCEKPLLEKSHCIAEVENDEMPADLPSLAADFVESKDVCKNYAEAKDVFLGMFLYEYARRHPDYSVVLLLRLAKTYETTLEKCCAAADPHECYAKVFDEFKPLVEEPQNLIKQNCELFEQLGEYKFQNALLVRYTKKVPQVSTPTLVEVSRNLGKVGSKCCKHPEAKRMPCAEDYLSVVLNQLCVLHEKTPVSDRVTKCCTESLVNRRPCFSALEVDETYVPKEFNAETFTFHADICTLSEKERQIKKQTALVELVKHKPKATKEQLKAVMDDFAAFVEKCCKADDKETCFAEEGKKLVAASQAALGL

[8] = test system: donor cells (tau biosensor cells); test: Donor cell number and viability in EMT assay; assay type: cell-based; conditions: 48 hours after sub-culture, 20 μM, vs DMSO
Protocol: HEK293T Tau RD P301S FRET biosensor (tau biosensor) cells were grown in Dulbecco's Modified Eagle's medium (DMEM) with high glucose, 10% FBS, and 1% Penicillin-streptomycin at 37° C./5% CO2. The lead inhibitors were tested in functional tau propagation “D+R” (Donors plus Recipients) and EMT (EV-mediated transfer) assays using the tau biosensors. Briefly, tau aggregation in donor cells (D) was induced by transfection of tau biosensor cells with human AD brain derived synaptosomal extracts (35 μg of synaptosomal fraction for 5 million cells in one 10 cm dish); control cells were treated with corresponding amount of transfection reagent lipofectamine 2000. After 24 hr incubation, the cells were trypsinized and plated together with DID-labeled recipient cells (R) in a 1:1 ratio in 96-well plates (15,000 of each cell type per well) for D+R assay or 1.5 million of donor cells per well in 6-well plates for EMT assay. Tested compounds or a corresponding amount of DMSO (0.2%) was added to the cell culture medium, DMEM, which contained 10% of exosome-depleted FBS (ThermoFisher, A2720803). […] Tau seed transfer from donor to recipient cells results in FRET signal generation in the DID-positive recipient cells, which was measured by flow cytometry. Integrated FRET density was calculated in the top 30% of DID-positive cell based on DID signal intensity.

[9] = test system: HEK293T Tau RD P301S FRET biosensor cells; test: Tau biosensor cells seeded with AD brain synaptosomal (P2) extract, FRET signal; assay type: cell-based; conditions: 10 μM, imaged after 24 hrs, vs DMSO
Protocol: Brain autopsy samples were obtained from the University of California Irvine, University of Southern California AD Research Centers, and University of California, Los Angeles. Brain tissue was cryopreserved and synaptosomal fractions (P2-fractions, or P2) were prepared as previously described. In order to prepare P2-extracts, aliquots were quickly defrosted at 37° C. and centrifuged at 10,000×g for 10 min at 4° C. to remove P2 from sucrose. After aspirating the supernatant, cold PBS was added to each sample in Ma 1:5 weight/volume ratio. Samples were then sonicated in 10-second intervals three times, incubated on ice for 30 min and centrifuged at 20,000 g for 20 min at 4° C. P2 extracts were collected and stored at −80° C. Tau biosensor cell treatment and analysis. HEK293T Tau RD P301S FRET biosensor cells (tau biosensors) were growing in the Dulbecco's Modified Eagle's medium (DMEM) with higher glucose, 10% FBS, and 1% Penicillin-streptomycin at 37° C./5% CO2. Cells were plated in 10-sm dishes (3 million cells per dish in the regular medium) and grown for 12 hrs. Cells were transduced with pulled synaptosomal (P2) extracts from AD cases using lipofectamine 2000. […]
Cells were imaged after 24 hrs using automated microscope imaging system (Lionheart FX) equipped with 20× objective and CFP-YFP FRET Image filter cube. […] FRET signal was detected using LSRII flow cytometer (BD biosciences). […]

CN1c2ccc(OC(=O)Nc3ccncc3)cc2[C@]2(C)CCO[C@H]12 [Compound 8]
EV size distribution of donor-derived EVs (TRPS) [1]: did not affect | concentrations of exosomal-type small EVs from donor cells [1]: decreased | levels of exosomal markers CD63, CD81, and syntenin-1 in donor EVs [1]: reduced | IL1β-induced tau release by exosomes ([2]; 20 mg/kg SQ): less effective | IL1β-induced brain EV / exosomal release (small EV concentration, TRPS) [2]: didn't induce the same level of suppression | brain penetration (compound levels in brain tissue, LC-MS/MS) [3]: penetrated the brain | concentration at 1 h [3]: 61 ng/g and ~200 nM | time of peak brain levels after SQ dosing [3]: around one | tau seed transfer from donor to recipient cells, D+R assay [4]: suppress tau propagation; also recorded: significantly suppresses | IC50 (Human AChE; IC50 AChE): 6 µM | tau seed transfer from donor to recipient cells, EMT assay [5]: suppress tau propagation; also recorded: significantly suppresses | CNS perm (PAMPA) [6]: 1.9 | degree of binding to human serum albumin (HSA) [7]: low degree of binding | fraction unbound [7]: 0.28

CN1c2ccc(OC(=O)Nc3cccnc3)cc2[C@]2(C)CCO[C@H]12 [Compound 11]
EV size distribution of donor-derived EVs (TRPS) [1]: did not affect | concentrations of exosomal-type small EVs from donor cells [1]: decreased | levels of exosomal markers CD63, CD81, and syntenin-1 in donor EVs [1]: reduced | donor cell numbers or survival [8]: didn't affect | IL1β-induced tau release by exosomes ([2]; 20 mg/kg SQ): significantly reduced | difference in CD11b levels (microglia-derived exosomes) vs IL1β group ([2]; 20 mg/kg SQ): not significant | exosome-associated BIN1 upon IL1β stimulation ([2]; 20 mg/kg SQ): lower | level of astrocyte-derived exosomes (GLAST) ([2]; 20 mg/kg SQ, vs IL1β group): significantly reduced | exosomal marker CD63 in exosome-enriched F2 fractions ([2]; 20 mg/kg SQ, vs IL1β only group): significant reduction | IL1β-induced brain EV / exosomal release (small EV concentration, TRPS) [2]: diminished IL1β-induced brain EV release; also recorded: suppressed IL1β-induced exosomal release to the control level | brain penetration (compound levels in brain tissue, LC-MS/MS) [3]: penetrated the brain | concentration at 1 h [3]: 262 ng/g and ~800 nM | time of peak brain levels after SQ dosing [3]: around one | decrease of FRET fluorescence density from DMSO-control, D+R assay [4]: 19.5% | tau seed transfer from donor to recipient cells, D+R assay [4]: suppress tau propagation; also recorded: significantly suppresses | IC50 (Human AChE; read-out: AChE IC50): 1.7 µM | decrease of FRET fluorescence density from DMSO-control, EMT assay [5]: 41.3% | tau seed transfer from donor to recipient cells, EMT assay [5]: suppress tau propagation; also recorded: significantly suppresses | CNS perm (PAMPA) [6]: 1.8 | degree of binding to human serum albumin (HSA) [7]: low degree of binding | fraction unbound [7]: 0.31

O=c1[nH]c(=S)[nH]c(-c2ccccc2)c1Cc1c(O)ccc2ccccc12 [DDL-112, cambinol]
amount of FRET-positive tau aggregates (microscopy) [9]: visibly decreased
